Data taken from patent US8097612B2 (priority 2006, dated 2012).

Experiments:
F1Fo-ATPase [1] = assay: Inhibition of the F1Fo-ATPase; format: biochemical; settings: binds to the OSCP in F1
Source text: F1Fo-ATPase inhibitors are invaluable tools for mechanistic studies of the F1Fo-ATPase (see, e.g., James A M, et al., J Biomed Sci 2002; 9:475-87; herein incorporated by reference in its entirety). Because F1Fo-ATPase inhibitors are often cytotoxic, they have been explored as drugs for cancer and other hyperproliferative disorders. Macrolides (e.g., oligomycin and apoptolidin) are non-competitive inhibitors of the F1Fo-ATPase (see, e.g., Salomon A R, et al., PNAS 2000; 97:14766-71; Salomon A R, et al., Chem Biol 2001; 8:71-80; herein incorporated by reference in its entirety). Macrolides bind to Fo which blocks proton flow through the channel resulting in inhibition of the F1Fo-ATPase. Macrolides are potent (e.g., the IC50 for oligomycin=10 nM) and lead to large decreases in [ATP]. As such, macrolides have an unacceptably narrow therapeutic index and are highly toxic (e.g., the LD50 for oligomycin in rodents is two daily doses at 0.5 mg/kg) (see, e.g., Kramar R, et al., Agents & Actions 1984, 15:660-63; herein incorporated by reference in its entirety). Other inhibitors of F1Fo-ATPase include Bz-423, which binds to the OSCP in F1 (as described elsewhere herein). Bz-423 has an Ki˜9 μM.

F1Fo-ATPase [2] = settings: macrolide, non-competitive inhibitor binding to Fo; read-out: IC50 for inhibition of the F1Fo-ATPase; cited from earlier work
rodents = settings: two daily doses; cited from earlier work

SMILES | Ki (F1Fo-ATPase [1]) [µM] | IC50 (F1Fo-ATPase [2]) [µM] | LD50 (rodents) [mg/kg]
CN1C(=O)C(Cc2ccc3ccccc3c2)N=C(c2ccc(O)cc2)c2cc(Cl)ccc21 (stereo not drawn) [Bz-423] | ~9 |  | 
CC[C@H]1/C=C/C=C/C[C@@H](C)[C@H](O)[C@@](C)(O)C(=O)[C@@H](C)[C@H](O)[C@@H](C)C(=O)[C@@H](C)[C@H](O)[C@@H](C)/C=C/C(=O)O[C@@H]2[C@H](C)[C@H](CC1)O[C@]1(CC[C@H](C)[C@H](C[C@@H](C)O)O1)[C@H]2C [oligomycin] |  | 0.01 | 0.5
